According to US20150282486A1, “RICE SEED TREATMENT COMPOSITION” (SYNGENTA PARTICIPATIONS AG, priority 2014, published 2015):

Assays:
[1] = test system: rice seed variety CL 151; assay: Greenhouse trial of zinc-treated rice seed in Zn deficient soil mix: germination rate; format: in vivo; conditions: plus insecticide/fungicide mixture, Zn deficient potting mix 1.97 ppm Zn
Excerpt: (§1) For the inventive composition, ZnEDTA (in the form of Dissolvine E-Zn-15 having 3% free zinc, Akzo Nobel, IL., USA) was applied as a 20% w/w aqueous solution at rates of 1.18 1.47 and 1.76 g ZnEDTA/kg seed. This was accomplished by using 8, 10 or 12 fl oz per cwt.
(§2) For the first comparative composition, ZnSO4 was applied as a 24.7% solution at a rate of 1.90 g ZnSO4/kg seed (in the form of ZINC PLUS having 10% free zinc, DeltAg, MS, USA). This was accomplished by using 10 fl oz per cwt.
(§3) For the second comparative composition, ZnO was applied as a 32.50% aqueous suspension at a rate of 2.00 g ZnO/kg seed (in the form of ZINCHE ST having 26% free zinc, Drexel Chemical Co, TN, USA). This was accomplished by using 8 fl oz per cwt.
(§4) This was done by preparing a mixture of each zinc-containing compound with the insecticide/fungicide mixture and adding water to make a total of 25 fl oz per ctw (thiamethoxam at 1.80 g/kg seed, fludioxonil at 0.015 g/kg seed, azoxystrobin at 0.07 g/kg seed, metalaxyl-M at 0.09 g/kg seed and sedaxane at 0.01 g/kg seed; commercial products available as e.g. CRUISER MAXX and VIBRANCE, both Syngenta Crop Protection, NC, USA). Also evaluated were untreated control and seeds having only the conventional insecticide and fungicide treatment.
(§5) For all test groups, one (1) kg batches of rice seed variety CL 151 (Clearfield Seed, Horizon Ag, TN, USA) were treated on a Hege seed treater (Wintersteiger AG, Austria) using a standard protocol. The seeds were allowed to dry.
Standard commercial greenhouse containers, 10 cm diameter by 9 cm deep, were filled with 350 cc of a rooting media mix consisting of 33% (v/v) Zn deficient soil collected in Arkansas, USA and then sterilized in an autoclave and 66% (v/v) commercial planting mix (NB peat, Fafard, MA, USA). Analysis of the potting mix confirmed that the zinc levels were low, at 1.97 ppm and pH levels were <7. […]
Ten days after planting (10 DAP) a drip irrigation emitter was installed on each pot. […] Germination rates were recorded and at 11 DAP rice seedlings were thinned to 5 plants per pot. […]

[2] = test system: rice seed variety CL 151; assay: Greenhouse trial of zinc-treated rice seed in Zn deficient soil mix: total zinc uptake in dry above ground plant tissue; format: in vivo; conditions: dry above ground tissue harvested 29 DAP, plus insecticide/fungicide mixture
Excerpt: as §1, §2, §3, §4, §5
Standard commercial greenhouse containers, 10 cm diameter by 9 cm deep, were filled with 350 cc of a rooting media mix consisting of 33% (v/v) Zn deficient soil collected in Arkansas, USA and then sterilized in an autoclave and 66% (v/v) commercial planting mix (NB peat, Fafard, MA, USA). Analysis of the potting mix confirmed that the zinc levels were low, at 1.97 ppm and pH levels were <7.
Prior to planting the soil was moistened with 200 ml tap water per pot. Eight seeds were sown per pot by placing them on soil surface then lightly covering with 0.5 cm of loose peat. […] Pots were transferred to greenhouse and maintained at 30/24° C. day/night temperature with 16 hours of supplemental high pressure sodium light. All pots were lightly watered manually every 2 to 3 days to prevent dehydration of the germination zone.
Ten days after planting (10 DAP) a drip irrigation emitter was installed on each pot. The irrigation system was set to deliver 100 ml of tap water each morning and again each evening. Germination rates were recorded and at 11 DAP rice seedlings were thinned to 5 plants per pot. By 17 DAP rice plants were in the V3 growth stage. At 18 DAP nitrogen fertilizer (urea) was added to the irrigation water at 200 ppm for the duration of trial. At 22 DAP rice plants were in the V4 growth stage with first tiller forming.
At 29 DAP rice plants were in the V5 growth stage with 3 tillers. The above ground plant tissue was harvested and placed in paper bags. Bags were placed in an oven set at 100° C. for 72 hours to dry. The dry tissue was removed from the bags and weighed. Samples of the dry tissue were analyzed for total zinc uptake (MicroMacro International, Inc. Labs, GA, USA).

[3] = test system: rice seed; conditions: 1.4 g ZnEDTA/kg rice seed; cited from earlier work

In the case of `O=S(=O)([O-])[O-].[Zn+2]` [ZnSO4, Zinc sulfate, reference compound], the “Germination rate (%)” value ([1]; 1.90 g Zn complex/kg seed) is reported as 43% and the “Zinc uptake (ppm)” value ([2]; 1.90 g Zn complex/kg seed) is reported as 237.50 ppm.

In the case of `[O]=[Zn]` [ZnO, Zinc oxide, reference compound], the “Germination rate (%)” value ([1]; 2.00 g Zn complex/kg seed) is reported as 42% and the “Zinc uptake (ppm)” value ([2]; 2.00 g Zn complex/kg seed) is reported as 253.65 ppm.

In the case of `O=C(O)CN(CCN(CC(=O)O)CC(=O)O)CC(=O)O.[Zn]` [ZnEDTA, zinc ethylenediaminetetraacetic acid], the “Germination rate (%)” value ([1]; 1.47 g Zn complex/kg seed) is reported as 45%, the “Zinc uptake (ppm)” value ([2]; 1.18 g Zn complex/kg seed) is reported as 275.47 ppm and the “Zinc uptake (ppm)” value ([2]; 1.47 g Zn complex/kg seed) is reported as 304.74 ppm. The “Zinc uptake (ppm)” value ([2]; 1.76 g Zn complex/kg seed) was 316.00 ppm and the “Outcome of rice seed treatment” value [3] was “not successful”.
